# Measurements published in US9067966B2, “Lupeol-type triterpene derivatives as antivirals” (priority 2009, dated 2015).
# pIC50: −log10 of the molar value. Several values for one entry are separate records, joined by “and”; a condition that tells them apart may be missing. Equal entries are not always repeated. Where two headings read alike, the source gives them in different places.
# Assays:
# HIV-1 strain IIIB = assay: Anti-HIV-1 luciferase indicator assay in MT2 cells, IIIB; assay type: cell-based; details: viral strain II B; for pIC50: read-out: IC50
# Procedure: (§1) Compound was dissolved in DMSO to make 30 mM stock. Then the 30 mM stock is further diluted to 4 mM using DMSO. The 4 mM stock was used as the top concentration to carry out an 11-point, 3-fold dilution scheme using DMSO in a 96-well plate to make the compound dose plate. Compounds in the dose plate were transferred to a new 96-well plate (working plate) containing PBS with 0.05% pluronic acid. From this working plate, the compound solution was transferred to the 384-well assay plates.
# (§2) Control compounds used in compound control wells were prepared and added to assay plates individually.
# (§3) MT2 cells were mixed with HIV-1 strain NL4-3 (or IIIB, or CNHN24) and the cell/virus mixture was added to the aforementioned antivirus assay plates. After incubation in a 37° C., 5% CO2 incubator, the supernatant from the assay plate was transferred to a new 384-well plate containing the indicator cells with a fire fly luciferase gene under HIV-1 LTR control. The expression level of luciferase was related to HIV-1 infectivity and was measured by Bright-Glo kit (Promega).
# (§4) Therapeutic index (TI) was determined by taking ratio of CC50/IC50
# HIV-1 strain NL4-3 = assay: Anti-HIV-1 luciferase indicator assay in MT2 cells, NL4-3; assay type: cell-based; details: viral strain NL4-3
# Procedure: as §1, §2, §3, §4
# HIV-1 strain CNHN24 = assay: Anti-HIV-1 luciferase indicator assay in MT2 cells, CNHN24; assay type: cell-based; details: viral strain CNHN24; for pIC50: read-out: IC50
# Procedure: as §1, §2, §3, §4
# in vitro = assay type: cell-based; details: human, CC50
# Procedure: as §1
# (§5) For cytotoxicity assay the same amount of MT2 cells as in antivirus assay but without HIV-1 virus were added to the cytotoxicity plates. The cytotoxicity was measured by Cell Titer-Glo cell viability assay (Promega).
# MT2 cells = assay: in vitro; assay type: cell-based; details: human
# Procedure: as §1, §5
# [1] = Cytotoxicity on Molt-4 cells (MTT); assay type: cell-based; details: human, read-out: Percent Viability; for viability at 24 h, 0.1 µM: concentration 0.1 μM; for viability at 24 h, 1 µM: concentration 1 μM; for viability at 24 h, 10 µM: concentration 10 μM; for viability at 24 h, 100 µM: concentration 100 μM
# Procedure: 10 mM stock solution of the test compound was made in DMSO and stored at −20° C. for further use. During the day of the experiment working stocks were made by serial dilution with DMSO. The final concentration of DMSO in the test media is 1%.
# MTT assay was performed in a 96 well format using Molt-4 cell line (Human acute T lymphoblastic leukemia)—a suspension culture maintained in RPMI with 10% FBS media.
# Approximately 0.03 million cells are seeded/well and the plate was incubated for 16 hours. Following incubation, cells are treated with a test compound at a defined concentration in triplicates and incubation was continued for another 24 hours. At the end of the incubation, MTT reagent was added (10 μl, 5 mg/ml stock) to the plate and continued incubation for additional 4 hours. Reaction was terminated by addition of 200 μl 0.1N acidic propanol. The colour developed was measured by a plate reader using 590 nm filters. The percent viability was calculated by comparing mean absorbance value of sample with the control (Vehicle alone).
# HIV-193IN 101 = assay: P24 assay for anti-HIV activity in Sup-T1 cells; assay type: cell-based, HIV-1; details: Human immunodeficiency virus 1, SUP-T1, read-out: Percent Inhibition of HIV-193IN 101 Replication in Sup-T1 Cells (table title: Percent Viability)
# Procedure: Viral p24 is measured after about 72 hours of post infection in presence of drugs using an ABL p24 ELISA kit. 0.5 million cells/well are taken into the 24 well plates and added increasing concentrations of drugs. 1 ng/ml of HIV-1 virus was added to each well and incubated for overnight at 37° C. (37° C. and 5% CO2). After about 16 hours incubation the media was changed and fresh media was added and cultured for about 72 hours. P24 was quantified at the 4th day of post-infection using an ABL kit according to manufacturer's instructions.
# Percent Inhibition of HIV-193IN 101 Replication in Sup-T1 Cells
# [2] = Cytotoxicity on Sup-T1 cells (MTT); assay type: cell-based; details: human, read-out: Percent Viability; for viability at 0.001 µM: concentration 1 nM; for viability at 0.1 µM: concentration 100 nM; for viability at 1 µM: concentration 1 μM; for viability at 100 µM: concentration 100 μM; for viability at 1 mM: concentration 1 mM
# Procedure: Reduction of 3-(4,5-dimethylthiozol-2-yl)-2,5-diphenyltetrazolium bromide (MTT, sigma) is chosen as an optimal end point of cell viability measurement (Mosmann, 1983; Cole, 1986; Alley et al., 1988) […] (0.2×10^6 cells per well) are seeded in 96-well plates. Increasing concentrations of compound are added to the cells and incubated at 37° C. for about 14 hours in a CO2 Incubator with 5% CO2. The media is replaced with a fresh growth medium along with 20 μL of 5 mg/ml 3-(4,5-dimethylthiazol-2-yl)-2,5-diphenyltetrazolium bromide (MTT, Sigma). After incubation for about 4 hours in a humidified atmosphere, the media is removed and 200 μL of 0.1 N acidic isopropyl alcohol is added to the wells to dissolve the MTT-formazan crystals. The absorbance is recorded at 570 nm, immediately after the development of purple colour. Each experiment is conducted in triplicate and the data are represented as average, with standard deviation. Percent viability of the cells is computed with reference to the absorbance of reduced MTT in the experiments conducted in absence of any compound.
# HIV-1 strain 92-HT599 = assay: Anti HIV-1 p24 assay, strain 92-HT599 in MT2 cells; assay type: cell-based; details: Human immunodeficiency virus 1, MT2 cells, read-out: Percent inhibition
# Procedure: MT2 cells were infected with the HIV-1 strain 92-HT599 (10TCID50/30000 cells). The infected cells are plated at the concentration of 30000 cells per well in a 96 well assay micro plate. A test compound was added to the micro plate in a defined format with the final concentration of DMSO (vehicle) being not more than 1%. Incubation was carried out in a CO2 incubator for 96 hours for viral infection. At the end of incubation period an aliquot from each well was taken for p24 estimation. The quantitation of p24 is an index for antiviral activity of the compound. Percent inhibition was calculated with reference to control values (vehicle).
# P24 estimation was carried out using an Advance Biosciences kit as per the procedure as detailed by supplier.
# […] was made by dissolving test compound in DMSO. Subsequent dilutions were made with DMSO to make necessary working stocks (100×).
# [3] = Human immunodeficiency virus 1, IIIB, MT2, MT2 cells
# [4] = Human immunodeficiency virus 1, NL43, MT2, MT2 cells, read-out: IC50
# [5] = Human immunodeficiency virus 1, MT2, MT2 cells
compound,measurement,setting,value
"C=C(C)[C@@H]1CC[C@]2(C(=O)O)CC[C@]3(C)[C@H](CC[C@@H]4[C@@]5(C)CC[C@H](OC(=O)[C@H]6C[C@@H](C(=O)O)C6(C)C)C(C)(C)[C@@H]5CC[C@]43C)[C@@H]12 [Example 19, (1R,3aS,5aR,5bR,7aR,9S,11aR,11bR,13aR,13bR)-9-((1S,3R)-3-carboxy-2,2-dimethylcyclobutanecarbonyloxy)-5a,5b,8,8,11a-pentamethyl-1-(prop-1-en-2-yl)icosahydro-1H-cyclopenta[a]chrysene-3a-carboxylic acid]",pIC50,HIV-1 strain IIIB; [3],7.68
same,TI / Safety Index (CC50/IC50),HIV-1 strain IIIB; MT2 cells,952
same,pIC50,HIV-1 strain NL4-3; [4],7.14
same,TI / Safety Index (CC50/IC50),HIV-1 strain NL4-3; MT2 cells,277
same,pIC50,HIV-1 strain CNHN24; [5],7.59
same,TI / Safety Index (CC50/IC50),HIV-1 strain CNHN24; MT2 cells,769
same,CC50,in vitro,20000 nM
same,melting point,,308 to 310 °C
C=C(C)[C@@H]1CC[C@]2(C(=O)N[C@@H]3C[C@H](C(=O)OCc4ccccc4)C3(C)C)CC[C@]3(C)[C@H](CC[C@@H]4[C@@]5(C)CC[C@H](OC(=O)CC(C)(C)C(=O)O)C(C)(C)[C@@H]5CC[C@]43C)[C@@H]12,melting point,,64.7 to 100.4 °C
"C=C(C)[C@@H]1CC[C@]2(C(=O)N[C@@H]3C[C@H](C(=O)N4CCCCC4)C3(C)C)CC[C@]3(C)[C@H](CC[C@@H]4[C@@]5(C)CC[C@H](OC(=O)CC(C)(C)C(=O)O)C(C)(C)[C@@H]5CC[C@]43C)[C@@H]12 [Example 48, 4-((1R,3aS,5aR,5bR,7aR,9S,11aR,11bR,13aR,13bR)-3a-((1R,3S)-2,2-dimethyl-3-(piperidine-1-carbonyl)cyclobutylcarbamoyl)-5a,5b,8,8,11a-pentamethyl-1-(prop-1-en-2-yl)icosahydro-1H-cyclopenta[a]chrysen-9-yloxy)-2,2-dimethyl-4-oxobutanoic acid]",pIC50,HIV-1 strain IIIB; [3],7.74
same,TI / Safety Index (CC50/IC50),HIV-1 strain IIIB; MT2 cells,1061 and 800
same,pIC50,HIV-1 strain IIIB; MT2 cells,7.60
same,pIC50,"HIV-1 strain NL4-3; Human immunodeficiency virus 1, NL43, MT2, MT2 cells",8.05
same,TI / Safety Index (CC50/IC50),HIV-1 strain NL4-3; MT2 cells,2072 and 1176
same,pIC50,"HIV-1 strain NL4-3; MT2 cells, read-out: IC50",7.77
same,pIC50,HIV-1 strain CNHN24; [5],7.96
same,pIC50,HIV-1 strain CNHN24; MT2 cells,7.68
same,CC50,MT2 cells,20000 nM
same,CC50,in vitro,> 20000 nM
"C=C(C)[C@@H]1CC[C@]2(C(=O)O)CC[C@]3(C)[C@H](CC[C@@H]4[C@@]5(C)CC[C@H](OC(=O)[C@@H]6C[C@H](C(=O)O)C6(C)C)C(C)(C)[C@@H]5CC[C@]43C)[C@@H]12 [Example 4, (1R,3aS,5aR,5bR,7aR,9S,11aR,11bR,13aR,13bR)-9-((1R,3S)-3-carboxy-2,2-dimethylcyclobutanecarbonyloxy)-5a,5b,8,8,11a-pentamethyl-1-(prop-1-en-2-yl)icosahydro-1H-cyclopenta[a]chrysene-3a-carboxylic acid]",pIC50,HIV-1 strain IIIB; [3],6.44
same,TI / Safety Index (CC50/IC50),HIV-1 strain IIIB; MT2 cells,54
same,pIC50,HIV-1 strain NL4-3; [4],6.70
same,TI / Safety Index (CC50/IC50),HIV-1 strain NL4-3; MT2 cells,91
same,pIC50,HIV-1 strain CNHN24; [5],6.66
same,TI / Safety Index (CC50/IC50),HIV-1 strain CNHN24; MT2 cells,91
same,CC50,in vitro,20000 nM
same,"viability at 24 h, 0.1 µM",[1],101%
same,"viability at 24 h, 1 µM",[1],98.7%
same,"viability at 24 h, 10 µM",[1],102%
same,"viability at 24 h, 100 µM",[1],7.03%
same,inhibition at 0.0001 µM,HIV-193IN 101,13%
same,inhibition at 0.001 µM,HIV-193IN 101,17.7%
same,inhibition at 0.1 µM,HIV-193IN 101,23.5%
same,inhibition at 1 µM,HIV-193IN 101,42.4%
same,inhibition at 100 µM,HIV-193IN 101,87.5%
same,viability at 0.001 µM,[2],85.8%
same,viability at 0.1 µM,[2],86.8%
same,viability at 1 µM,[2],85.2%
same,viability at 100 µM,[2],39%
same,viability at 1 mM,[2],26.2%
C=C(C)[C@@H]1CC[C@]2(C(=O)N[C@H]3C[C@@H](C(=O)N4CCCCC4)C3(C)C)CC[C@]3(C)[C@H](CC[C@@H]4[C@@]5(C)CC[C@H](OC(=O)[C@@H]6C[C@H](C(=O)O)C6(C)C)C(C)(C)[C@@H]5CC[C@]43C)[C@@H]12,melting point,,257.7 to 269 °C
"C=C(C)[C@@H]1CC[C@]2(C(=O)O)CC[C@]3(C)C(CC[C@@H]4[C@@]5(C)[C@@H](C(=O)O)[C@H](OC(=O)CC(C)(C)C(=O)O)C(C)(C)[C@@H]5CC[C@]43C)C12 (stereo partly drawn) [Example 6, (1R,2S,3aR,5aR,5bR,7aS,10R,12aR,12bR)-2-(3-carboxy-3-methylbutanoyloxy)-3,3,5a,5b,12b-pentamethyl-10-(prop-1-en-2-yl)icosahydrodicyclopenta[a,i]phenanthrene-1,7a-dicarboxylic acid]","viability at 24 h, 0.1 µM",[1],103%
same,"viability at 24 h, 1 µM",[1],99%
same,"viability at 24 h, 10 µM",[1],82.8%
same,"viability at 24 h, 100 µM",[1],7.27%
same,inhibition at 0.0001 µM,HIV-193IN 101,17.5%
same,inhibition at 0.001 µM,HIV-193IN 101,15.2%
same,inhibition at 0.1 µM,HIV-193IN 101,21.1%
same,inhibition at 1 µM,HIV-193IN 101,32.1%
same,inhibition at 100 µM,HIV-193IN 101,34.9%
same,viability at 0.001 µM,[2],86.9%
same,viability at 0.1 µM,[2],82.7%
same,viability at 1 µM,[2],88.6%
same,viability at 100 µM,[2],88.8%
same,viability at 1 mM,[2],23.1%
"C=C(C)[C@@H]1CC[C@]2(C(=O)N[C@H]3C[C@@H](C(=O)N4CCCC4)C3(C)C)CC[C@]3(C)[C@H](CC[C@@H]4[C@@]5(C)CC[C@H](OC(=O)CC(C)(C)C(=O)O)C(C)(C)[C@@H]5CC[C@]43C)[C@@H]12 [Example 15, 4-((1R,3aS,5aR,5bR,7aR,9S,11aR,11bR,13aR,13bR)-3a-((1S,3R)-2,2-dimethyl-3-(pyrrolidine-1-carbonyl)cyclobutylcarbamoyl)-5a,5b,8,8,11a-pentamethyl-1-(prop-1-en-2-yl)icosahydro-1H-cyclopenta[a]chrysen-9-yloxy)-2,2-dimethyl-4-oxobutanoic acid]",inhibition at 0.1 µM,"HIV-1 strain 92-HT599; HIV-1 92-HT599, p24, concentration 0.1 μM",86%
same,inhibition at 1 µM,"HIV-1 strain 92-HT599; HIV-1 92-HT599, p24, concentration 1 μM",98%
same,melting point,,110 to 114 °C
